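Cells were grown in 96-well plates and exposed to each compound for 48 hours at five concentrations; endpoints were interpolated linearly between bracketing concentrations, or set to the highest concentration if not reached. TGI: concentration producing complete growth inhibition.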
What was measured:
Assay in all cases: DTP human tumour cell line panel, 48 h
[1] = system: BT-549 breast
[2] = system: CAKI-1 renal
[3] = system: HCT-15 colon
[4] = system: HOP-92 NSCLC
[5] = system: KM12 colon
[6] = system: MALME-3M melanoma
[7] = system: MDA-N
[8] = system: NCI-H226 lung
[9] = system: NCI-H23 lung
[10] = system: NCI/ADR-RES ovarian
[11] = system: OVCAR-3 ovarian
[12] = system: RXF 393 renal
[13] = system: SF-539 CNS
[14] = system: SK-MEL-28 melanoma
[15] = system: SK-OV-3 ovarian
[16] = system: SNB-75 CNS
[17] = system: TK-10 renal
[18] = system: U251 CNS
[19] = system: UACC-62 melanoma
[20] = system: LOX IMVI melanoma

| Compound | TGI [1] [µM] | TGI [2] [µM] | TGI [3] [µM] | TGI [4] [µM] | TGI [5] [µM] | TGI [6] [µM] | TGI [7] [µM] | TGI [8] [µM] | TGI [9] [µM] | TGI [10] [µM] | TGI [11] [µM] | TGI [12] [µM] | TGI [13] [µM] | TGI [14] [µM] | TGI [15] [µM] | TGI [16] [µM] | TGI [17] [µM] | TGI [18] [µM] | TGI [19] [µM] | TGI [20] [µM] |
| --- | --- | --- | --- | --- | --- | --- | --- | --- | --- | --- | --- | --- | --- | --- | --- | --- | --- | --- | --- | --- |
| CC(=O)Oc1c(C)c2c(c3ncccc13)OC(C)C2 (stereo not drawn) | 35.6 | 27.8 | 24.5 | 28.2 | 28.7 | 30.2 | 32.3 | 32.8 | 32.9 | 35.9 | > 100 | 30.9 | 28.7 | 26.8 | 54.2 | 28 | 49.2 | 28.8 | 24.6 | – |
| CO[C@]1(c2ccc([N+](=O)[O-])cc2)Oc2ccccc2C(=O)[C@@]1(Nc1ccc(C=O)cc1)OC | > 10 | > 10 | > 10 | – | > 10 | > 10 | > 10 | > 10 | > 10 | > 10 | > 10 | > 10 | > 10 | > 10 | > 10 | > 10 | > 10 | > 10 | > 10 | > 10 |
| COc1ccc(NC(=S)Nc2cc(C)cc(C)n2)cc1 | > 100 | > 100 | > 100 | – | > 100 | > 100 | > 100 | > 100 | – | > 100 | > 100 | > 100 | > 100 | > 100 | > 100 | > 100 | > 100 | > 100 | > 100 | > 100 |
| CC1=NN(c2nc(N)nc(/C(C#N)=C/c3ccccc3O)n2)C(C)(C)C1 | 67.7 | 36.9 | 38.6 | 36.7 | 31.4 | 33.8 | 30.7 | 37.8 | 34.5 | 47 | 27.8 | 39.5 | 30.6 | 30.8 | 53.2 | – | 58.4 | 41.3 | 33.5 | – |
| C1=CC2(C=CC13O[C@H](C1CCCCC1)[C@@H](C1CCCCC1)O3)O[C@H](C1CCCCC1)[C@@H](C1CCCCC1)O2 | > 50 | > 50 | > 50 | – | > 50 | > 50 | > 50 | > 50 | > 50 | > 50 | > 50 | > 50 | > 50 | > 50 | > 50 | > 50 | > 50 | > 50 | > 50 | > 50 |
| NC(=O)C(=CNC(N)=S)C(N)=O | > 100 | > 100 | > 100 | – | > 100 | > 100 | > 100 | > 100 | > 100 | > 100 | > 100 | > 100 | > 100 | > 100 | > 100 | > 100 | – | > 100 | > 100 | > 100 |
| CC1=CC(=O)[C@@H](O)[C@]2(C)[C@H]3[C@@]4(O)OC[C@]35[C@H]([C@@H](C)[C@H]4O)[C@@H](OC(=O)C(C)(C)CO)C(=O)O[C@@H]5C[C@@H]12 | 0.423 | 9.88 | 3.1 | – | 0.787 | – | 0.825 | 0.553 | 0.0869 | 51.3 | 1.92 | 2.23 | < 0.0261 | > 100 | > 81.4 | 2.11 | – | – | 0.86 | 0.0741 |
| CSC1=C(C#N)C(=S)N=C(N)C1C(=O)Nc1ccc(C)cc1 (stereo not drawn) | > 100 | > 100 | > 100 | – | > 100 | > 100 | > 100 | > 100 | > 100 | > 100 | > 100 | > 100 | > 100 | > 100 | > 100 | > 100 | > 100 | > 100 | > 100 | > 100 |
| COC1(c2ccc(Cl)cc2)SC=C(C)n2c1noc2=O (stereo not drawn) | > 100 | > 100 | > 100 | > 100 | > 100 | > 100 | > 100 | – | > 100 | 94.9 | > 100 | > 100 | – | > 100 | – | – | – | > 100 | > 100 | > 100 |
| C=CC[C@H]1O[Si](C(C)(C)C)(C(C)(C)C)[C@H](C)[C@H]1C | > 100 | > 100 | > 100 | > 100 | > 100 | > 100 | > 100 | > 100 | > 100 | > 100 | > 100 | – | > 100 | > 100 | > 100 | > 100 | > 100 | > 100 | > 100 | > 100 |
| Cc1ccc(S(=O)(=O)NC(=O)NC(CC(N)=O)C(=O)O)cc1 (stereo not drawn) | > 100 | – | > 100 | > 100 | > 100 | > 100 | > 100 | – | > 100 | > 100 | – | > 100 | > 100 | > 100 | > 100 | > 100 | > 100 | > 100 | > 100 | > 100 |
| COc1cccc(-c2nc3ccccc3c(=O)[nH]2)c1 | 61.8 | 37.1 | 51.6 | > 100 | 86.9 | 52.5 | 36.9 | – | > 100 | 51.8 | 42.7 | 56.6 | 50.3 | 96.6 | 48.2 | – | 36.9 | 44.7 | 44 | > 100 |
| CN(C)CCNc1ccc([N+](=O)[O-])c2sc3ccccc3c(=O)c12 | 17.2 | – | 23.6 | 51.2 | > 100 | 17.9 | 21.6 | 51.2 | 29.5 | 54.2 | 32.6 | 38.1 | 13.7 | 21.5 | > 100 | 35.6 | > 100 | > 100 | 16.8 | – |

From PubChem BioAssay (NCI)
